Source: patent publication US7996156B2, “Methods for predicting properties of molecules” (priority 2002, dated 2011)
Like-named read-outs stand apart in the source and are kept apart here.

How the values were obtained:
[1] = target: T1, aryl hydrocarbon receptor (AhR) (Rattus norvegicus, UniProt P41738); conditions: rodent hepatic cytosol, cited from earlier work
T1 construct: rodent hepatic cytosol as a source of the AhR; from tissue; host or cells: rodent hepatic cytosol
T1 sequence (P41738 10-853): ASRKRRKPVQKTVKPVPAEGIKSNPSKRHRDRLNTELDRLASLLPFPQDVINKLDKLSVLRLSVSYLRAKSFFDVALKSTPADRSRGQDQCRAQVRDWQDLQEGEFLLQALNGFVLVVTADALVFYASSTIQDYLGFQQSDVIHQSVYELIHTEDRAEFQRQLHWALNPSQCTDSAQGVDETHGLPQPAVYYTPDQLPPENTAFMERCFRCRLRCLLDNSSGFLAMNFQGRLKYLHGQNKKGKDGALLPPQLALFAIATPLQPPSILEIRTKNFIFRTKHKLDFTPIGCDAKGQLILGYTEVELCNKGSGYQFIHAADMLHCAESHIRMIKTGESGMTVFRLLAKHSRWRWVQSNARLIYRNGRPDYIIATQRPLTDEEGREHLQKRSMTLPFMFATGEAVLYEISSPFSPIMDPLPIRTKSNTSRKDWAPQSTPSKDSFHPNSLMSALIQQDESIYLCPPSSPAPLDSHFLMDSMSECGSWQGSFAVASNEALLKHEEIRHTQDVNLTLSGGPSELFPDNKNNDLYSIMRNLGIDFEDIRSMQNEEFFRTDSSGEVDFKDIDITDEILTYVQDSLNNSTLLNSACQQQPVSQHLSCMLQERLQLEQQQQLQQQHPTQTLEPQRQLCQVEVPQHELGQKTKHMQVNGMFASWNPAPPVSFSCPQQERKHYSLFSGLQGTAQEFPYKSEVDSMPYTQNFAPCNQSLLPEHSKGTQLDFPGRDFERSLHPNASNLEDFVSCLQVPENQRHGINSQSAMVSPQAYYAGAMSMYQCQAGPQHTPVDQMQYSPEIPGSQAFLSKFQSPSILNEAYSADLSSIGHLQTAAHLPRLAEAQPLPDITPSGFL

estrogen receptor [2] = conditions: cited from earlier work
[3] = Minimum inhibitory concentration of cephalosporin antibiotics; assay type: cell-based; set-up: unit not given here
From the text: This example describes the application of the disclosed CoSCoSA methods to model the minimum inhibitory concentration of cephalosporin antibotics, using only the through-bond (COSY-type) connections between carbons and between carbons and nitrogens in their structures. Bin sizes of 3 ppm by 3 ppm for carbon to carbon bins were used, and 10 ppm by 3 ppm for the nitrogen to carbon bins. […] The structures of the cephalosporins used in the model are shown below.

[4] = set-up: unit not given here; conditions: Minimal Inhibitory Concentration; cited from earlier work
aromatase enzyme = target: T2, aromatase enzyme (Homo sapiens, UniProt P11511); conditions: 50 steroids of Table 8; cited from earlier work
T2 sequence (P11511 1-503): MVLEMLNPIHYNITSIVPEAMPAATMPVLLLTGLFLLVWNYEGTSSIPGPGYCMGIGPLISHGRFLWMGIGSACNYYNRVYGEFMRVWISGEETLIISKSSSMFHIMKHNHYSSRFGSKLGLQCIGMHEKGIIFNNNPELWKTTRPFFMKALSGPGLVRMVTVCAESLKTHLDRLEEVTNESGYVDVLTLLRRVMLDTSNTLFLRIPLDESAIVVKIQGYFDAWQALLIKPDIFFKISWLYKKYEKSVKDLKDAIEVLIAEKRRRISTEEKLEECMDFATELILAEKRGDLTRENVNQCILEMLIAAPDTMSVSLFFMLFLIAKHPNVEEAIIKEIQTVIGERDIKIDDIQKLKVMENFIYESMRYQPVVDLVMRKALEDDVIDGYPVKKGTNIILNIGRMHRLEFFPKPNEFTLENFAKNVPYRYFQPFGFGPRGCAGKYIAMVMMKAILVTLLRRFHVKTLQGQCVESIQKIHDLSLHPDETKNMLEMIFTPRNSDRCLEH

estrogen receptor [5] = target: T3, estrogen receptor (Rattus norvegicus, UniProt P06211); conditions: background statement; cited from earlier work
T3 construct: in rat uterine cytosol, which was obtained from ovariectomized uteri of Sprague-Dawley rats; from tissue; host or cells: uterine cytosol of ovariectomized Sprague-Dawley rats
T3 sequence (P06211 1-600): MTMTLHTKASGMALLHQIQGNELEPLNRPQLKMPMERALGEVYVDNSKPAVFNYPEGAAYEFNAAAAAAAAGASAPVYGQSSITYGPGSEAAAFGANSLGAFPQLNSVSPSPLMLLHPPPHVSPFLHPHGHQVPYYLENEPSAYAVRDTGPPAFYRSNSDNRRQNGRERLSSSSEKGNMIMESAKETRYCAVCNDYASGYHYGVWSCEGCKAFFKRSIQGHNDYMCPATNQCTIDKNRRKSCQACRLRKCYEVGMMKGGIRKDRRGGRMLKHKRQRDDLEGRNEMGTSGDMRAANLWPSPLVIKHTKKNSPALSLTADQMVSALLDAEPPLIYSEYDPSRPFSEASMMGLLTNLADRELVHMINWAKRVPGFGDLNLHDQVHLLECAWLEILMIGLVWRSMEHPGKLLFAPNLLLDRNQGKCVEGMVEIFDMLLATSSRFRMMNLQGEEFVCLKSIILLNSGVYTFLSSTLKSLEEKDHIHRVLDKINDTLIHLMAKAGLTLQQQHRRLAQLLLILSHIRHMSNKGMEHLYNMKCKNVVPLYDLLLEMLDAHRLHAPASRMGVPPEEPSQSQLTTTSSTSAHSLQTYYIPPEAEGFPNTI

[6] = experimental values of Waller et al. and Kuiper et al. external test sets, normalized to NCTR data

SMILES	Log(1/MIC) [3]	MIC [4]	further results
Clc1cc(Cl)c(-c2cc(Cl)c(Cl)cc2Cl)cc1Cl [2,2′,4,4′,5,5′-hexaCl-biphenyl]	–	–	Experimental Log EC50 ([1]; log scale, competitive binding, [3H]-2,3,7,8-tetrachlorodioxin, previously reported training data): −5.10; Experimental Log EC50 ([1]; previously reported competitive in vitro AhR binding, [3H]-2,3,7,8-tetrachlorodioxin radioligand, values are log EC50): −5.10; Normalized log (RBA) (estrogen receptor [2]; [6]): −2.83
C[C@]12CC[C@@H]3c4ccc(O)cc4CC[C@H]3[C@@H]1CC(=O)[C@@H]2O [16-ketoestradiol]	–	–	Normalized log (RBA) (estrogen receptor [2]): −0.38
CC12CCC3c4ccc(O)cc4CCC3C1CC(Br)C2O (stereo not shown) [16a-bromoestradiol]	–	–	Normalized log (RBA) (estrogen receptor [2]; [6]): 1.41
N[C@@H](C(=O)N[C@@H]1C(=O)N2C(C(=O)O)=C(Cl)CS[C@H]12)c1ccccc1 [Cefaclor]	−.90	8	–
CCN1CCN(C(=O)N[C@@H](C(=O)N[C@@H]2C(=O)N3C(C(=O)O)=C(CSc4nnnn4C)CS[C@H]23)c2ccc(O)cc2)C(=O)C1=O [Cefaperazone]	−1.20	16	–
C=CC1=C(C(=O)O)N2C(=O)[C@@H](NC(=O)/C(=N\OCC(=O)O)c3csc(N)n3)[C@H]2SC1 [Cefixime]	−.90	–	–
CO[C@@]1(NC(=O)CSCC#N)C(=O)N2C(C(=O)O)=C(CSc3nnnn3C)CS[C@@H]21 [Cefmetazole]	−1.20	16	–
CO[C@@]1(NC(=O)C2SC(=C(C(N)=O)C(=O)O)S2)C(=O)N2C(C(=O)O)=C(CSc3nnnn3C)CS[C@@H]21 (stereo partly shown) [Cefotetan]	−1.20	–	–
CO[C@@]1(NC(=O)Cc2cccs2)C(=O)N2C(C(=O)O)=C(COC(N)=O)CS[C@@H]21 [Cefoxitin]	−1.20	16	–
COCC1=C(C(=O)O)N2C(=O)[C@@H](NC(=O)/C(=N\OC)c3csc(N)n3)[C@H]2SC1 [Cefpodoxime]	−.30	–	–
CC(C)(O/N=C(\C(=O)N[C@@H]1C(=O)N2C(C(=O)[O-])=C(C[n+]3ccccc3)CS[C@H]12)c1csc(N)n1)C(=O)O [Ceftazidime]	−1.20	16	–
CO/N=C(\C(=O)N[C@@H]1C(=O)N2C(C(=O)O)=CCS[C@H]12)c1csc(N)n1 [Ceftizoxime]	−.90	8	–
CO/N=C(\C(=O)N[C@@H]1C(=O)N2C(C(=O)O)=C(COC(N)=O)CS[C@H]12)c1ccco1 [Cefuroxime]	−.60	4	–
CC1=C(C(=O)O)N2C(=O)[C@@H](NC(=O)[C@H](N)c3ccccc3)[C@H]2SC1 [Cephalexin]	−.90	8	–
CC(=O)OCC1=C(C(=O)O)N2C(=O)[C@@H](NC(=O)Cc3cccs3)[C@H]2SC1 [Cephalothin]	−.90	8	–
CC(=O)OCC1=C(C(=O)O)N2C(=O)[C@@H](NC(=O)CSc3ccncc3)[C@H]2SC1 [Cephapirin]	−.90	8	–
CC1=C(C(=O)O)N2C(=O)[C@@H](NC(=O)[C@H](N)C3=CCC=CC3)[C@H]2SC1 [Cephradine]	−.90	8	–
CCC1=C(c2ccc(O)cc2)[C@H](C)c2cc(O)ccc21 [Indenestrol A (R)]	–	–	Normalized log (RBA) (estrogen receptor [2]; [6]): 1.08
CCC1=C(c2ccc(O)cc2)[C@@H](C)c2cc(O)ccc21 [Indenestrol A (S)]	–	–	Normalized log (RBA) (estrogen receptor [2]; [6]): 2.39
CCC(=O)[C@@]1(C)CC[C@H]2[C@@H]3CCC4=CC(=O)CCC4=C3CC[C@@]21C [R 5020]	–	–	Normalized log (RBA) (estrogen receptor [2]; [6]): −1.81
O=C(c1ccc(OCCN2CCCCC2)cc1)c1c(-c2ccc(O)cc2)sc2cc(O)ccc12 [Raloxifene]	–	–	Normalized log (RBA) (estrogen receptor [2]; [6]): 1.34
C[C@H]1CCCC(=O)CCC/C=C/c2cc(O)cc(O)c2C(=O)O1 [Zearalenone]	–	–	Normalized log (RBA) (estrogen receptor [2]; [6]): 0.91
C/C=C1\CC2C(CC[C@]3(C)C(=O)CCC23)[C@@]2(C)CCC(=O)C=C12 (stereo partly shown) [compound 50]	–	–	Binding (experimental binding data, aromatase enzyme) (aromatase enzyme): 0.96
C/C(=C(/C)c1ccc(O)cc1)c1ccc(O)cc1 [dimethystilbesterol]	–	–	binding to the estrogen receptor (in words) (estrogen receptor [5]): bind strongly
